Experimental findings from patent US11884675B2, “Heterocyclic compounds as triggering receptor expressed on myeloid cells 2 agonists and methods of use” (AMGEN INC., priority 2020, dated 2024) are described below.

The assay deals with hTREM2 (Homo sapiens, UniProt Q9NZC2). Description: TREM2 activity by cellular Syk phosphorylation (AlphaScreen/AlphaLISA) in TREM2/DAP12-HEK cells, used for Examples 1-305. The following applies: HEK293 Cells. Also on record: expressed in transfected cells. The format is cell-based. The procedure, abridged:
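Single-cell-cloned HEK293 cells overexpressing TREM2 and DAP12, seeded 20 h, exposed to test articles (1% final DMSO) for 45 min at room temperature. Lysates read for phospho-Syk (Tyr525/526) vs total Syk by AlphaScreen. Signal normalised as percent of control between isotype IgG and 100 nM anti-TREM2 antibody; 4-parameter logistic fit.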
For orientation: In Alpha technology, singlet oxygen from a donor bead excites a nearby acceptor bead.

Sequence of hTREM2 (Q9NZC2 19-230): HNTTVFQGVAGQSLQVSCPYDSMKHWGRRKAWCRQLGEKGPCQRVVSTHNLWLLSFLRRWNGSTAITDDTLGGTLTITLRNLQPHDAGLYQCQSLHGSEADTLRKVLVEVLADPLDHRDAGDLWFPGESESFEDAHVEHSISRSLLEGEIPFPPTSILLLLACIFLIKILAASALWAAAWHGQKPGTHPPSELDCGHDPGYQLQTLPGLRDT
Sequence of hTREM2 (O43914 22-113 partner): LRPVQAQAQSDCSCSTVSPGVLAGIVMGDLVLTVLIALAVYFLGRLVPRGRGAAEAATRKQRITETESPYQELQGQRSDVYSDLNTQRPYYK

In the case of `Cc1nc2nc(N3CCO[C@@H](c4cnn(C)c4)C3)nc(-c3ccc(Cl)cc3F)c2nc1C` [Example 21, 4-(4-chloro-2-fluorophenyl)-6,7-dimethyl-2-((2S)-2-(1-methyl-1H-pyrazol-4-yl)-4-morpholinyl)pteridine], the EC50 (usually the midpoint of the concentration-response curve) was no more than 50 nM and the “hTREM2 Emax” value is given as “++++ (Emax>250)”.
As to `CN1Cc2c(cc(N3CCO[C@@H](c4cnn(C)c4)C3)nc2-c2ccc(Cl)cc2F)C1=O` [Example 119, 4-(4-chloro-2-fluorophenyl)-2-methyl-6-((2S)-2-(1-methyl-1H-pyrazol-4-yl)-4-morpholinyl)-2,3-dihydro-1H-pyrrolo[3,4-c]pyridin-1-one], the EC50 fell in the range of 50 to 500 nM; the “hTREM2 Emax” value is “++ (Emax>100 and ≤150)”.
For `Cc1nc2cc(N3CCO[C@@H](c4cnn(C)c4)C3)nc(-c3ccc(Cl)cc3F)c2nc1C` [Example 79, 5-(4-chloro-2-fluorophenyl)-2,3-dimethyl-7-((2S)-2-(1-methyl-1H-pyrazol-4-yl)-4-morpholinyl)pyrido[3,4-b]pyrazine], the EC50 is no more than 50 nM and the “hTREM2 Emax” value is “++++ (Emax>250)”.
As to `Cc1ccc(-c2nc(N3CCO[C@@H](c4ccnc(C)c4)C3)nc3nc(C)cnc23)c(F)c1` [Example 10, 4-(2-fluoro-4-methylphenyl)-7-methyl-2-((2S)-2-(2-methyl-4-pyridinyl)-4-morpholinyl)pteridine], the EC50 was no more than 50 nM; the “hTREM2 Emax” value is “+++ (Emax>150 and ≤250)”.
As for `Cc1cc2c(-c3ccc(Cl)cc3F)nc([C@@H]3CCO[C@H](c4cnn(C5CC5)c4)C3)nc2nc1C` (single isomer, unassigned) [Example 198], the EC50 was in the range of 50 to 500 nM; the “hTREM2 Emax” value is “+++ (Emax>150 and ≤250)”.
As to `Cc1nc2nc([C@H]3CCO[C@@H](c4cnn(C5CC5)c4)C3)nc(-c3ccc(C(F)(F)F)nc3)c2nc1C` [Example 300, 2-((2R,4S)-2-(1-cyclopropyl-1H-pyrazol-4-yl)tetrahydro-2H-pyran-4-yl)-6,7-dimethyl-4-(6-(trifluoromethyl)pyridin-3-yl)pteridine], the EC50 lay within 50 to 500 nM; the “hTREM2 Emax” value was “+++ (Emax>150 and ≤250)”.
As to `Cn1cc([C@H]2CN(c3cc4ccccc4c(-c4ccc(Cl)cc4F)n3)CCO2)cn1` [Example 235, (S)-4-(1-(4-chloro-2-fluorophenyl)isoquinolin-3-yl)-2-(1-methyl-1H-pyrazol-4-yl)morpholine], the concentration giving a half-maximal response (EC50) lay within 3000 to 100000 nM; the “hTREM2 Emax” value is “+ (Emax>45 and ≤100)”.
As to `Cc1ccc2c(n1)nc(N1CCO[C@@H](c3cnn(C4CC4)c3)C1)nc2[C@H]1CC[C@H](C(F)(F)F)CC1` [Example 145, 2-((2S)-2-(1-cyclopropyl-1H-pyrazol-4-yl)-4-morpholinyl)-7-methyl-4-(trans-4-(trifluoromethyl)cyclohexyl)pyrido [2,3-d]pyrimidine], the EC50 was no more than 50 nM; the “hTREM2 Emax” value was “+ (Emax>45 and ≤100)”.
For the molecule `Cc1nc2nc(N3CCO[C@@H](c4cnn(C5CC5)c4)C3)nc(C3CCC(F)(F)CC3)c2nc1C` [Example 138, 2-((2S)-2-(1-cyclopropyl-1H-pyrazol-4-yl)-4-morpholinyl)-4-(4,4-difluorocyclohexyl)-6,7-dimethylpteridine], the concentration for a half-maximal effect (EC50) was no more than 50 nM; the “hTREM2 Emax” value is “+++ (Emax>150 and ≤250)”.
Consider `Cc1cc([C@H]2CN(c3nc4nc(C)c(C)nc4c([C@H]4C[C@H](C(F)F)C4)n3)CCO2)ccn1` [Example 54, 4-(trans-3-(difluoromethyl)cyclobutyl)-6,7-dimethyl-2-((2S)-2-(2-methyl-4-pyridinyl)-4-morpholinyl)pteridine], for which the EC50 was no more than 50 nM; the “hTREM2 Emax” value is “++ (Emax>100 and ≤150)”.
For `Cc1nc2nc([C@H]3CCO[C@@H](c4cnn(C)c4)C3)nc(-c3ccc(F)cc3F)c2nc1C` (single isomer, unassigned) [Example 182], the EC50 was no more than 50 nM; the “hTREM2 Emax” value is “+++ (Emax>150 and ≤250)”.
Turning to `Cc1cc2c(-c3ccc(Cl)cc3F)nc([C@@H]3CCO[C@H](c4cnn(C)c4)C3)nc2nc1C` (single isomer, unassigned) [Example 226], the EC50 is 50 to 500 nM; the “hTREM2 Emax” value is “+++ (Emax>150 and ≤250)”.
Take `Cc1cc([C@@H]2C[C@H](c3nc(-c4ccc(F)cc4F)c4nc(C)c(C)nc4n3)CCO2)ccn1` (single isomer, unassigned) [Example 210]: the EC50 fell in the range of 50 to 500 nM and the “hTREM2 Emax” value is given as “++++ (Emax>250)”.
As for `Cc1nc2nc(N3CCO[C@H]([C@H]4CCOC4)C3)nc(-c3ccc(F)cc3F)c2nc1C` (single isomer, unassigned) [Example 36], the concentration giving a half-maximal response (EC50) lay within 50 to 500 nM; the “hTREM2 Emax” value was “+++ (Emax>150 and ≤250)”.
As for `Cc1cc2c(nc(N3CCO[C@@H](c4cnn(C)c4)C3)nc2[C@H]2C[C@H](C(F)(F)F)C2)nc1C` [Example 112, 6,7-dimethyl-2-((2S)-2-(1-methyl-1H-pyrazol-4-yl)-4-morpholinyl)-4-(trans-3-(trifluoromethyl)cyclobutyl)pyrido[2,3-d]pyrimidine], the concentration giving a half-maximal response (EC50) was no more than 50 nM; the “hTREM2 Emax” value was “+++ (Emax>150 and ≤250)”.
On to `Cc1nc2nc([C@@H]3CCO[C@H](c4cnn(C)c4)C3)nc(-c3ccc(Cl)cc3F)c2nc1C` (single isomer, unassigned) [Example 177], for which the half-maximal effective concentration (EC50) was 500 to 3000 nM; the “hTREM2 Emax” value was “+++ (Emax>150 and ≤250)”.
As for `Cc1cc2c(OCC3CC(F)(F)C3)nc(N3CCO[C@@H](c4cnn(C)c4)C3)nc2nc1C` [Example 108, 4-((3,3-difluorocyclobutyl)methoxy)-6,7-dimethyl-2-((2S)-2-(1-methyl-1H-pyrazol-4-yl)-4-morpholinyl)pyrido[2,3-d]pyrimidine], the concentration giving a half-maximal response (EC50) is 50 to 500 nM; the “hTREM2 Emax” value was “+ (Emax>45 and ≤100)”.
As to `Cc1nc2nc(N3CCO[C@@H]([C@H]4CCOC4)C3)nc(-c3ccc(F)cc3F)c2nc1C` [Example 251, (S)-4-(4-(2,4-difluorophenyl)-6,7-dimethylpteridin-2-yl)-2-((S)-tetrahydrofuran-3-yl)morpholine], the EC50 lay in the range of 500 to 3000 nM; the “hTREM2 Emax” value is “+++ (Emax>150 and ≤250)”.
On to `Cc1nc2nc(N3CCO[C@@H](c4cnn(C)c4)C3)nc(-c3ccc(F)cc3F)c2nc1C` [Example 31, 4-(2,4-difluorophenyl)-6,7-dimethyl-2-((2S)-2-(1-methyl-1H-pyrazol-4-yl)-4-morpholinyl)pteridine], for which the concentration for a half-maximal effect (EC50) is no more than 50 nM; the “hTREM2 Emax” value was “+++ (Emax>150 and ≤250)”.
As to `CCn1cc([C@H]2CN(c3cc4nc(C)cnc4c(-c4ccc(Cl)cc4F)n3)CCO2)cn1` [Example 75, 5-(4-chloro-2-fluorophenyl)-7-((2S)-2-(1-ethyl-1H-pyrazol-4-yl)-4-morpholinyl)-2-methylpyrido[3,4-b]pyrazine], the EC50 is 50 to 500 nM and the “hTREM2 Emax” value is “++++ (Emax>250)”.
For the molecule `Cc1nc2nc(N3CCO[C@@H](c4cnn(C5CC5)c4)C3)nc([C@H]3C[C@H](C(F)F)C3)c2nc1C` [Example 48, 2-((2S)-2-(1-cyclopropyl-1H-pyrazol-4-yl)-4-morpholinyl)-4-(trans-3-(difluoromethyl)cyclobutyl)-6,7-dimethylpteridine], the EC50 is no more than 50 nM; the “hTREM2 Emax” value was “++ (Emax>100 and ≤150)”.
On to `Cc1cc([C@@H]2C[C@H](c3cc4nc(C)c(C)nc4c(-c4ccc(Cl)cc4F)n3)CCO2)ccn1` (relative stereo) [Example 217, 5-(4-chloro-2-fluorophenyl)-2,3-dimethyl-7-((2S,4R)-2-(2-methyl-4-pyridinyl)tetrahydro-2H-pyran-4-yl)pyrido [3,4-b]pyrazine], for which the EC50 is 50 to 500 nM; the “hTREM2 Emax” value is “+++ (Emax>150 and ≤250)”.
`Cc1ccc2c(-c3ccc(Cl)cc3F)nc(N3CCO[C@@H](c4cnn(C)c4)C3)cc2c1` [Example 147, 1-(4-chloro-2-fluorophenyl)-6-methyl-3-((2S)-2-(1-methyl-1H-pyrazol-4-yl)-4-morpholinyl) isoquinoline]: the 50% effective concentration (EC50) fell in the range of 3000 to 100000 nM and the “hTREM2 Emax” value is “++++ (Emax>250)”.
The matching figures for `Cc1nc2nc(N3CCO[C@@H](c4cnn(C)c4)C3)nc(-c3cc(F)c(F)cc3F)c2nc1C` [Example 62, 6,7-dimethyl-2-((2S)-2-(1-methyl-1H-pyrazol-4-yl)-4-morpholinyl)-4-(2,4,5-trifluorophenyl)pteridine]: no more than 50 nM and “++++ (Emax>250)”.
For `Cc1ccc(-c2nc([C@@H]3CCO[C@H](c4cnn(C)c4)C3)cc3nc(C)c(C)nc23)c(F)c1` [Example 258, 5-(2-fluoro-4-methylphenyl)-2,3-dimethyl-7-((2S,4R)-2-(1-methyl-1H-pyrazol-4-yl)tetrahydro-2H-pyran-4-yl)pyrido[3,4-b]pyrazine], the half-maximal effective concentration (EC50) was 500 to 3000 nM; the “hTREM2 Emax” value is “+++ (Emax>150 and ≤250)”.
Regarding `CCN1Cc2c(cc(N3CCO[C@@H](c4cnn(C)c4)C3)nc2-c2ccc(Cl)cc2F)C1=O` [Example 121, 4-(4-chloro-2-fluorophenyl)-2-ethyl-6-((2S)-2-(1-methyl-1H-pyrazol-4-yl)-4-morpholinyl)-2,3-dihydro-1H-pyrrolo[3,4-c]pyridin-1-one], the half-maximal effective concentration (EC50) fell in the range of 50 to 500 nM and the “hTREM2 Emax” value is listed as “++++ (Emax>250)”.
On to `Cc1nc2nc(N3CCO[C@@H](c4cnn(C)c4)C3)nc(-c3ccc(Cl)cn3)c2nc1C` [Example 291, (S)-4-(4-(5-chloropyridin-2-yl)-6,7-dimethylpteridin-2-yl)-2-(1-methyl-1H-pyrazol-4-yl)morpholine], for which the EC50 was 50 to 500 nM and the “hTREM2 Emax” value is on record as “++++ (Emax>250)”.
For the molecule `Cc1nc2nc(N3CCO[C@@H](c4cnn(C)c4)C3)nc([C@@H]3C[C@H]3C(F)(F)F)c2nc1C` [Example 57, 6,7-dimethyl-2-((2S)-2-(1-methyl-1H-pyrazol-4-yl)-4-morpholinyl)-4-((1R,2R)-2-(trifluoromethyl)cyclopropyl)pteridine], the EC50 fell in the range of 500 to 3000 nM; the “hTREM2 Emax” value is “++ (Emax>100 and ≤150)”.
